Measurements published in patent publication US20240262803A1, “COMPOUNDS, COMPOSITIONS AND METHODS OF TREATING DISORDERS” (Chungdu Anticancer Bioscience Ltd, priority 2021, published 2024).
“Also recorded” adds a separate entry of the source.

Key:
[1] = test system: lung cancer cell line A549; assay: Minimal effective concentration that elicits polyploidy, A549; format: cell-based; conditions: Homo sapiens, read-out: MECP: Minimal effective concentration that elicits polyploidy
[2] = test system: lung cancer cell line NCI-H460; assay: Minimal effective concentration that elicits polyploidy, NCI-H460; format: cell-based, human
[3] = test system: colon cancer cell line HCT116; assay: MTT assay of cellular proliferation, HCT116; format: cell-based; conditions: Homo sapiens, HCT-116, read-out: EC50: Concentration that inhibits 50% of proliferation
Summary of the method: (§1)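 MTT viability assay in DMEM with 5% FBS. Cells seeded to 20–30% confluence were exposed to compound from 1 nM to 10 μM, then MTT was added for 3–4 h and formazan was read at 570 nm. EC50 is the concentration giving 50% inhibition of proliferation.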

[4] = test system: lung cancer cell line A549; assay: MTT assay of cellular proliferation, A549; format: cell-based; conditions: Homo sapiens, read-out: EC50: Concentration that inhibits 50% of proliferation
Summary of the method: as §1

[5] = test system: lung cancer cell line Calu-6; assay: MTT assay of cellular proliferation, Calu-6; format: cell-based; conditions: Homo sapiens, read-out: EC50: Concentration that inhibits 50% of proliferation
Protocol: (§2) Six lung cancer cell lines (NCI-H23, NCI-H460, NCI-H596, NCI-H2170, Calu-6 and A549), two colon cancer cell lines (HCT116 and SW460), one breast cancer cell line MDA-MB-231, one gastric cancer cell line NCI-N87, one prostate cancer cell line DU145, one cervical cancer cell line Hela, and one glioblastoma cell line T98G were obtained from ATCC. The T2 HCC cell line was derived from a mouse liver cancer model initiated by a transgene of MYC (Reference). All cell lines were cultured in DMEM (Gibco, Cleveland, TN, USA) supplemented with 5% fetal bovine serum (Gibco), penicillin (100 U/mL)-streptomycin (100 μg/mL) (Gibco, Cat. No. 15140-122), 2 mM L-glutamine (Gibco, 200 mM solution, Cat. No. 25030081), and 1 mM sodium pyruvate (Gibco, 100 mM solution, Cat. No. 11360070) at 37° C. in a humidified incubator that was maintained at 5% CO2.
(§3) The MTT assay measures cellular metabolic activity as a proxy for cell viability and involves the conversion of the water-soluble yellow dye MTT [3-(4,5-dimethylthiazol-2-yl)-2,5-diphenyltetrazolium bromide] into an insoluble purple formazan by the action of mitochondrial reductase. Formazan is then solubilized and its concentration is determined by measuring the optical density (OD) value at a wavelength of 570 nm. The value is in proportional to the number of live cells with excellent linearity up to ˜10^6 cells per well. The MTT assay was used to determine the EC50 value, the concentration of a compound that leads to 50% inhibition of cellular proliferation. Briefly, cells were split when growing to the mid-Log phase. Cells in 100 μL of culture medium were seeded into each well of 96-well microplates and cultivated for 15˜24 hours to reach a confluence of 20˜30% and were then exposed to drugs at concentrations ranging from 1 nM to 10 μM. At the endpoint, 20 μL of a MTT stock solution in DMSO (5 mg/mL) was added to each well that contains […] of DMEM. The microplates were left in the cell culture incubator for 3˜4 h before subjected to solubilization and determination of formazan at A570 in a microplate reader (BioTek ELX808iu). […] Therefore, these compounds might hold a broad utility in the treatment of a large variety of human malignancies.

[6] = test system: prostate cancer cell line DU145; assay: MTT assay of cellular proliferation, DU145; format: cell-based; conditions: Homo sapiens, DU-145, read-out: EC50: Concentration that inhibits 50% of proliferation
Protocol: as §2, §3

[7] = test system: cervical cancer cell line Hela; assay: Soft agar colony formation assay, Hela; format: cell-based, human; conditions: 3D culture, FIG. 2
Protocol: as §2
Measuring the ability of cells to grow in soft agar has been popularly believed as the gold standard assay for cellular transformation in vitro. In the Soft Agar Assay, cells grow from single cells to cell colonies in a semi-solid agar solution that keeps them away from the solid surface and allows growth in an anchorage-independent way.
The anchorage-independent growth of cells is one of the hallmarks of cancer cells. […] Cell culture medium was changed once every two days until colonies were ready to photograph. […]

[8] = test system: cervical cancer cell line Hela; assay: MTT assay of cellular proliferation, Hela; format: cell-based; conditions: Homo sapiens, read-out: EC50: Concentration that inhibits 50% of proliferation
Summary of the method: as §1

[9] = test system: breast cancer cell line MDA-MB-231; assay: MTT assay of cellular proliferation, MDA-MB-231; format: cell-based; conditions: Homo sapiens, read-out: EC50: Concentration that inhibits 50% of proliferation
Summary of the method: as §1

[10] = test system: breast cancer cell line MDA-MB-231; assay: Minimal effective concentration that elicits polyploidy, MDA-MB-231; format: cell-based; conditions: Homo sapiens, read-out: MECP: Minimal effective concentration that elicits polyploidy
[11] = test system: glioblastoma cell line T98G; assay: Minimal effective concentration that elicits polyploidy, T98G; format: cell-based, human
[12] = test system: lung cancer cell line NCI-H596; assay: Minimal effective concentration that elicits polyploidy, NCI-H596; format: cell-based, human
[13] = test system: glioblastoma cell line T98G; assay: MTT assay of cellular proliferation, T98G; format: cell-based; conditions: Homo sapiens, read-out: EC50: Concentration that inhibits 50% of proliferation
Protocol: as §2, §3

[14] = test system: lung cancer cell line NCI-H23; assay: MTT assay of cellular proliferation, NCI-H23; format: cell-based; conditions: Homo sapiens, read-out: EC50: Concentration that inhibits 50% of proliferation
Summary of the method: as §1

[15] = test system: colon cancer cell line HCT116; assay: Minimal effective concentration that elicits polyploidy, HCT116; format: cell-based; conditions: Homo sapiens, HCT-116, read-out: MECP: Minimal effective concentration that elicits polyploidy
[16] = test system: lung cancer cell line NCI-H2170; assay: MTT assay of cellular proliferation, NCI-H2170; format: cell-based; conditions: Homo sapiens, read-out: EC50: Concentration that inhibits 50% of proliferation
Protocol: as §2, §3

[17] = test system: lung cancer cell line Calu-6; assay: Minimal effective concentration that elicits polyploidy, Calu-6; format: cell-based, human
[18] = test system: cervical cancer cell line Hela; assay: Minimal effective concentration that elicits polyploidy, Hela; format: cell-based; conditions: Homo sapiens, read-out: MECP: Minimal effective concentration that elicits polyploidy
[19] = test system: lung cancer cell line NCI-H2170; assay: Minimal effective concentration that elicits polyploidy, NCI-H2170; format: cell-based, human
SW480 = assay: Minimal effective concentration that elicits polyploidy, SW480; format: cell-based; conditions: Homo sapiens, read-out: MECP: Minimal effective concentration that elicits polyploidy
[20] = test system: colon cancer cell line SW460; assay: MTT assay of cellular proliferation, SW460; format: cell-based; conditions: Homo sapiens, SW480; read-out: EC50: Concentration that inhibits 50% of proliferation
Summary of the method: as §1

EC50 [3] [nM] | EC50 [4] [nM] | EC50 [5] [nM] | EC50 [6] [nM] | EC50 [8] [nM] | EC50 [9] [nM] | EC50 [13] [nM] | EC50 [14] [nM] | EC50 [16] [nM] | SMILES | minimal effective concentration [1] [µM] | MECP: Minimal effective concentration that elicits polyploidy [2] | anchorage-independent growth in soft agar [7] | minimal effective concentration [10] [µM] | MECP: Minimal effective concentration that elicits polyploidy [11] | MECP: Minimal effective concentration that elicits polyploidy [12] | minimal effective concentration [15] [µM] | MECP: Minimal effective concentration that elicits polyploidy [17] | minimal effective concentration [18] [µM] | MECP: Minimal effective concentration that elicits polyploidy [19] | minimal effective concentration (SW480) [µM] | other results
1 to 1000 | 10000 to 30000 | 1 to 1000 | 1 to 1000 | 1 to 1000 | 1 to 1000 | 1 to 1000 | 1 to 1000 | 1 to 1000 | COC(=O)c1cc(Oc2ncccc2-c2ccncc2)cc(C(=O)OC)c1 [Compound 1, Dimethyl 5-([3,4′-bipyridin]-2-yloxy)isophthalate] | 1 to 10 | B (B: 1 μM < conc. ≤ 10 μM) | Suppress the Anchorage-independent Growth; also recorded: effectively suppressed the anchorage-independent growth | 0.001 to 1 | A (A: 1 nM < conc. ≤ 1 μM) | A (A: 1 nM < conc. ≤ 1 μM) | 0.001 to 1 | A (A: 1 nM < conc. ≤ 1 μM) | 0.001 to 1 | A (A: 1 nM < conc. ≤ 1 μM) | – | –
1 to 1000 | 10000 to 30000 | 1 to 1000 | 1 to 1000 | 1 to 1000 | 1 to 1000 | 1 to 1000 | 1 to 1000 | 1 to 1000 | COC(=O)c1cc(OC)cc(Oc2ncccc2-c2ccncc2)c1 [Compound 2, Methyl 3-([3,4′-bipyridin]-2-yloxy)-5-methoxybenzoate] | 1 to 10 | B (B: 1 μM < conc. ≤ 10 μM) | – | 0.001 to 1 | A (A: 1 nM < conc. ≤ 1 μM) | A (A: 1 nM < conc. ≤ 1 μM) | 0.001 to 1 | A (A: 1 nM < conc. ≤ 1 μM) | 0.001 to 1 | A (A: 1 nM < conc. ≤ 1 μM) | 0.001 to 1 | EC50 [20]: 1 to 1000 nM
1 to 1000 | – | 1 to 1000 | 1 to 1000 | 1 to 1000 | 1 to 1000 | 1000 to 10000 | 1 to 1000 | 1 to 1000 | COC(=O)c1cc(Oc2ncccc2-c2ccnc(N)n2)cc(C(=O)OC)c1 [Compound 21, dimethyl 5-((3-(2-aminopyrimidin-4-yl)pyridin-2-yl)oxy)isophthalate] | – | B (B: 1 μM < conc. ≤ 10 μM) | Suppress the Anchorage-independent Growth; also recorded: effectively suppressed the anchorage-independent growth | 0.001 to 1 | B (B: 1 μM < conc. ≤ 10 μM) | A (A: 1 nM < conc. ≤ 1 μM) | 0.001 to 1 | A (A: 1 nM < conc. ≤ 1 μM) | 0.001 to 1 | A (A: 1 nM < conc. ≤ 1 μM) | – | –
1 to 1000 | 10000 to 30000 | 1 to 1000 | 1 to 1000 | 1 to 1000 | 1 to 1000 | 10000 to 30000 | 1 to 1000 | 1 to 1000 | COC(=O)c1cc(OC)cc(Oc2ncccc2-c2ccnc(N)n2)c1 [Compound 23, Methyl 3-((3-(2-aminopyrimidin-4-yl)pyridin-2-yl)oxy)-5-methoxybenzoate] | 1 to 10 | B (B: 1 μM < conc. ≤ 10 μM) | – | 0.001 to 1 | A (A: 1 nM < conc. ≤ 1 μM) | A (A: 1 nM < conc. ≤ 1 μM) | 0.001 to 1 | A (A: 1 nM < conc. ≤ 1 μM) | 0.001 to 1 | A (A: 1 nM < conc. ≤ 1 μM) | 0.001 to 1 | EC50 [20]: 1 to 1000 nM
